Tests used:
[1] = tested on: tomato cotyledon explants; assay: Shoot regeneration from tomato cotyledon explants with 1 mg/L BAP (Experiment 3); format: cell-based, tomato cultivar Roma VF
Description: The sterilized seeds were germinated on half-strength Murashige and Skoog (MS) medium in vitro. Cotyledons from 10-day old seedlings before first true leaves emerged were used as starting explants in all the experiments. The base and tip of the cotyledons were excised and the explants were transferred with the abaxial surface in contact with the culture medium. The basic culture medium consists of MS medium with vitamins supplemented with 30 g/L sucrose and gelled with 0.8% agar, and the pH of the medium was adjusted to 5.8±0.2. […] All experiments were conducted with at least three replicates of 10 explants each.
To analyse the effects on shoot regeneration, the basic media was supplemented with 1 mg/L BAP and different concentrations of TAA, IAA, NAA, IBA and 2,4 D (0.05, 0.1, 0.5, 1.0 and 2.0 mg/L) individually. Since there are no previous reports on suitable concentration ranges for TAA in tomato regeneration, concentrations at 50.0, 100.0, 200.0 and 300.0 mg/L were analysed additionally for TAA.

[2] = tested on: tomato cotyledon explants; assay: Root regeneration from tomato cotyledon explants in vitro (Experiment 2); format: cell-based, tomato cultivar Roma VF; settings: 0.05 and 0.1 mg/L, no other hormones; for organogenesis from tomato cotyledon explants (root formation): within 7 days
Experimental: Seeds of tomato cultivar Roma VF were sterilized by treating with 75% ethanol for 30 seconds at room temperature and washed with sterile water for five times. The seeds were then treated with 15% sodium hypochlorite for 10 minutes and washed five times in sterile water. The sterilized seeds were germinated on half-strength Murashige and Skoog (MS) medium in vitro. Cotyledons from 10-day old seedlings before first true leaves emerged were used as starting explants in all the experiments. The base and tip of the cotyledons were excised and the explants were transferred with the abaxial surface in contact with the culture medium. The basic culture medium consists of MS medium with vitamins supplemented with 30 g/L sucrose and gelled with 0.8% agar, and the pH of the medium was adjusted to 5.8±0.2. Plates were maintained at a light cycle of 16/8 hours day/night, temperature of 26/24° C. day/night, and relative humidity of 70% and subcultured on the same media after 14 days. Observations were made on 7, 14, 21 and 28 days of growth. All experiments were conducted with at least three replicates of 10 explants each.
In order to analyze the effect of TAA on root regeneration, the basic media were supplemented with different concentrations of TAA (0.05 and 0.1 mg/L) and further compared with individual effect of widely used auxins (IAA, NAA, IBA, 2,4 D) at similar concentrations.

tobacco leaf explants = assay: Shoot organogenesis from tobacco leaf explants in vitro (Experiment 4); format: cell-based, Nicotiana tabacum L. cv. Petit Havana SRI; settings: 8 weeks
WT Arabidopsis seedlings [3] = assay: Root growth of WT Arabidopsis seedlings (Experiment 6); format: in vivo, A. thaliana; settings: Arabidopsis thaliana, 144 h; 6 days growth, 8-day-old seedlings; read-out: concentration that reduced the primary root length to 50% of control
Experimental: (§1) Arabidopsis Columbia-0 wild type (WT) was used for assessing the effect of TAA on root growth and its effects on the expression of auxin-responsive genes. Seeds of A. thaliana were surface sterilized by suspending in 70% ethanol for 1 minute, followed by treatment with 10% bleach for 20 minutes. After thorough washing with sterile distilled water, the sterilized seeds were plated onto germination medium (half-strength Murashige and Skoog basal medium with vitamins (1/2 MS) medium supplemented with 1% sucrose and 0.7% plant agar) for germination. Germination was initiated by incubating the seeds in darkness at 5° C. for 2 days, followed by transfer to a light environment at 22° C. with a photoperiod of 16-h light/8-h dark for further growth. Stock solutions of TAA were prepared in DMSO (dimethyl sulfoxide). In control treatments, DMSO was used in equal amounts as present in the greatest concentration of TAA tested.
To analyze the effect of TAA on root growth, WT Arabidopsis seedlings were germinated as described and uniform-looking 8-day-old seedlings were transferred to germination medium supplemented with different concentrations of TAA (0.1, 1, 2, 5, 10, 25, 50, and 100 μM) or NAA/IAA/IBA (0.05, 0.1, 1, 2 and 5 μM). For IBA, two additional concentrations (10 and 25 μM) were also analyzed. Seedlings grown on media supplemented with an equal volume of DMSO were used as control. The seedlings were allowed to grow for 6 days and the plates were photographed at 24 h intervals. Primary root length was measured using Image J software. The difference in the number of lateral roots (LR) and root hairs was visually observed. Microscopic images were taken on a Leica Thunder Imager System (Leica Microsystems Ltd., Switzerland) and the images were processed with LAS X software.

WT Arabidopsis seedlings [4] = assay: Root growth of WT Arabidopsis seedlings in the presence of NPA (Experiment 7); format: in vivo, A. thaliana; settings: NPA even at low concentrations (0.5 μM)
Experimental: as §1
To analyze the effect of TAA on root growth in the presence of NPA (N-1-naphthylphthalamic acid), WT Arabidopsis seedlings were germinated as described and uniform-looking 8-day-old seedlings were transferred to germination medium supplemented with different concentrations of TAA (5 and 10 μM) and different concentrations of NPA (0, 0.5, 1, 2, 4, and 8 μM). The seedlings were allowed to grow for 6 days and the plates were photographed at 24 h intervals. […]

[5] = 1 mg/L IAA added to 3% MS + 2 mg/L kinetin
[6] = basic shoot regeneration media: 3% MS media + 2 mg/L kinetin

SMILES: O=C(O)COc1ccc(Cl)cc1Cl [2,4D, 2,4-dichlorophenoxyacetic acid]
- shoot organogenesis ([1]; 0.05, 0.1, 0.5, 1.0 and 2.0 mg/L with 1 mg/L BAP): did not show any shoot formation
- organogenesis from tomato cotyledon explants ([2]; by Day 14): formed more callus and few of the explants showed longer roots
- organogenesis from tomato cotyledon explants (root formation) [2]: the explants enlarged in size and started showing signs of callus formation

SMILES: O=C(O)Cc1c[nH]c2ccccc12 [IAA, indole-3-acetic acid, reference compound]
- increase of number of shoots regenerated per explant versus basic shoot regeneration media (tobacco leaf explants; [5]): more than 3 times
- increase of total number of shoots regenerated versus basic shoot regeneration media (tobacco leaf explants; [5]): more than 3 times
- shoot organogenesis ([1]; 2 mg/L with 1 mg/L BAP): mostly callus and root formation
- shoot organogenesis ([1]; 0.05, 0.1, 0.5 and 1.0 mg/L with 1 mg/L BAP): better shoot formation than NAA
- IC50 (WT Arabidopsis seedlings [3]): 100 nM
- organogenesis from tomato cotyledon explants (root formation) [2]: rapid root formation

SMILES: O=C(O)CCCc1c[nH]c2ccccc12 [IBA, indole-3-butyric acid]
- shoot organogenesis ([1]; 0.05, 0.1 and 0.5 mg/L with 1 mg/L BAP): callus and well-defined shoot formation
- shoot organogenesis ([1]; 1.0 and 2.0 mg/L with 1 mg/L BAP): mostly callus and some root formation
- IC50 (WT Arabidopsis seedlings [3]): 10000 nM
- organogenesis from tomato cotyledon explants (root formation) [2]: rapid root formation

SMILES: O=C(O)Cc1cccc2ccccc12 [NAA, naphthalene-1-acetic acid]
- shoot organogenesis ([1]; 0.05 mg/L with 1 mg/L BAP): most explants produced callus, but a few produced shoots
- shoot organogenesis ([1]; higher concentrations (above 0.05 up to 2.0 mg/L) with 1 mg/L BAP, Day 28): mostly callus by Day 28, but a few of them showed root formation
- IC50 (WT Arabidopsis seedlings [3]): 50 nM
- organogenesis from tomato cotyledon explants (root formation) [2]: rapid root formation

SMILES: O=C(O)c1ccccc1C(=O)Nc1cccc2ccccc12 [NPA, N-1-naphthylphthalamic acid, reference compound]
- primary root length and number of LR (WT Arabidopsis seedlings [4]): reduced primary root length and the number of LR

SMILES: c1coc(CNc2ncnc3[nH]cnc23)c1 [kinetin, reference compound]
- average number of shoots per explant (tobacco leaf explants; [6]): 3.10
- total number of shoots regenerated per plate (tobacco leaf explants; [6]): 21.7

Reference: patent publication US20250072423A1, “THIOPHENE ACETIC ACID FOR PLANT GROWTH REGULATION” (priority 2023, published 2025)
